Laboratory results published in patent EP4745138A1, “THIO-GLUTARIMIDO ISOINDOLINONE DERIVATIVE, BIFUNCTIONAL PROTEIN DEGRADER CONTAINING SAME, AND USES THEREOF” (Gluetacs Therapeutics (Shanghai) Co., Ltd., priority 2023, dated 2025).

Target: T1, human Cereblon WT GST-tagged protein (Homo sapiens, UniProt Q96SW2)
T1 construct: purchased CISBIO 64BDCRBNPEH
Test: CRBN-binding affinity, HTRF (CEREBLON BINDING kit)
Settings: for inhibition at 0.5 µM: read-out: Inhibition Rate at 0.5 µM (%); for inhibition at 2 µM: read-out: Inhibition Rate at 2 µM (%)
Text: The CEREBLON BINDING kits (specification: 10,000 tests; product number: Catalog # 64BDCRBNPEH; CISBIO company) was used to determine the CRBN binding ability of the compounds to be tested through a HTRF method (homogeneous time-resolved fluorescence). The specific methods are as follows: • 1. […] Specifically, diluent #9 (1X) solution was used as the diluent, and multiple concentration gradients were set. […] Into the 96-well plate, the diluted test compounds and corresponding detection reagents were added, resulting in final test compound concentrations of 2 µM and 0.5 µM, respectively. […] Then, 2.5 µL of human Cereblon WT GST-tagged protein solution was added to each well. Finally, 5 µL of the thoroughly mixed Thalidomide-Re reagent and GST Eu antibody working solution were added to each of the aforementioned wells. […] The blank control wells were sequentially added with 2.5 µL of diluent #9 (1X) solution, 2.5 µL of PROTAC binding buffer, and 5 µL of thoroughly mixed Thalidomide-Re reagent and GST Eu antibody working solution. • 4.

T1 sequence (Q96SW2 whole entry): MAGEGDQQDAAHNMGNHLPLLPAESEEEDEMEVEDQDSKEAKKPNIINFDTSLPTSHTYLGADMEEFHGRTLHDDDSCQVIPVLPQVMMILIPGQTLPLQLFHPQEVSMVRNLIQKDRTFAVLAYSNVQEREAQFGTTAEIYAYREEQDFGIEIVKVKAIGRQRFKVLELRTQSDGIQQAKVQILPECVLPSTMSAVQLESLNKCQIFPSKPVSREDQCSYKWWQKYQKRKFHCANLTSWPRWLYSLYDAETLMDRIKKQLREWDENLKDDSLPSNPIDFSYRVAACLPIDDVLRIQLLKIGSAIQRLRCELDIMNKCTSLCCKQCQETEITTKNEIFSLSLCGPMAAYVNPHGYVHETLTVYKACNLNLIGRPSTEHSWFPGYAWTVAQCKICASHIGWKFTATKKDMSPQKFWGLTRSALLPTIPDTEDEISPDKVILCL

| Structure (SMILES) | inhibition at 0.5 µM [%] | inhibition at 2 µM [%] |
| --- | --- | --- |
| CCN(c1cc(-c2ccc(CN3CCN(Cc4ccc5c(c4)CN(C4CCC(=O)NC4=O)C5=S)CC3)cc2)cc(C(=O)NCc2c(C)cc(C)[nH]c2=O)c1C)C1CCOCC1 (stereo not shown) [GT-08886, N-((4,6-dimethyl-2-oxo-1,2-dihydropyridin-3-yl)methyl)-4'-((4-((2-(2,6-dioxopiperidin-3-yl)-1-thioxoisoindolin-5-yl)methyl)piperazin-1-yl)methyl)-5-(ethyl(tetrahydro-2H-pyran-4-yl)amino)-4-methyl-[1,1-biphenyl]-3-carboxamide] | 53 to 60 | 80 to 100 |
| COc1ccc2cn(C3CCN(Cc4ccc5c(c4)CN(C4CCC(=O)NC4=O)C5=S)CC3)nc2c1NC(=O)c1cccc(C(F)(F)F)c1 (stereo not shown) [GT-09413, N-(2-(1-((2-(2,6-dioxopiperidin-3-yl)-1-thioxoisoindolin-5-yl)methyl)piperidin-4-yl)-6-methoxy-2H-indazol-7-yl)-3-(trifluoromethyl)benzamide] | 60 to 80 | 100 to 110 |
| COc1cc2nn(C3CCN(Cc4cccc5c4CN(C4CCC(=O)NC4=O)C5=S)CC3)cc2cc1NC(=O)c1cccc(C(F)(F)F)c1 (stereo not shown) [GT-09414, N-(2-(1-((2-(2,6-dioxopiperidin-3-yl)-1-thioxoisoindolin-4-yl)methyl)piperidin-4-yl)-6-methoxy-2H-indazol-5-yl)-3-(trifluoromethyl)benzamide] | 20 to 30 | 60 to 80 |
| CC1(C)CCC(c2ccc(Cl)cc2)=C(CN2CCN(c3ccc(C(=O)NS(=O)(=O)c4ccc(N[C@H](CCN5CC6CCC(C5)N6Cc5ccc6c(c5)CN(C5CCC(=O)NC5=O)C6=S)CSc5ccccc5)c(S(=O)(=O)C(F)(F)F)c4)cc3)CC2)C1 (stereo partly drawn) [GT-09416, 4-(4-((4'-chloro-4,4-dimethyl-3,4,5,6-tetrahydro-[1,1'-biphenyl]-2-yl)methyl)piperazin-1-yl)-N-((4-(((2R)-4-(8-((2-(2,6-dioxopiperidin-3-yl)-1-thioxoisoindolin-5-yl)methyl)-3,8-diazabicyclo[3.2.1]octan-3-yl)-1-(phenylthio)butan-2-yl)amino)-3-((trifluoromethyl)sulfonyl)phenyl)sulfonyl)benzamide] | 80 to 100 | 80 to 100 |

Second part, the molecule after the results:

| inhibition at 0.5 µM [%] | inhibition at 2 µM [%] | Structure (SMILES) |
| --- | --- | --- |
| 60 to 80 | 80 to 100 | CCN(c1cc(-c2ccc(N3CCN(Cc4ccc5c(c4)CN(C4CCC(=O)NC4=O)C5=S)CC3)cc2)cc(C(=O)NCc2c(C)cc(C)[nH]c2=O)c1C)C1CCOCC1 (stereo not shown) [GT-08887, N-((4,6-dimethyl-2-oxo-1,2-dihydropyridin-3-yl)methyl)-4'-(4-((2-(2,6-dioxopiperidin-3-yl)-1-thioxoisoindolin-5-yl)methyl)piperazin-1-yl)-5-(ethyl(tetrahydro-2H-pyran-4-yl)amino)-4-methyl-[1,1-biphenyl]-3-carboxamide] |
| 60 to 80 | 60 to 80 | Cn1c2ccncc2c2ccc(-c3cnc(N4CCN(Cc5ccc6c(c5)CN(C5CCC(=O)NC5=O)C6=S)CC4)c(Cl)c3)cc21 (stereo not shown) [GT-08978, 3-(5-((4-(3-chloro-5-(5-methyl-5H-pyrido[4,3-b]indol-7-yl)pyridin-2-yl)piperazin-1-yl)methyl)-1-thioxoisoindolin-2-yl)piperidine-2,6-dione] |
| 40 to 53 | 60 to 80 | Cc1cc(-c2ccc3c4cnccc4n(C)c3c2)cnc1N1CCN(Cc2ccc3c(c2)CN(C2CCC(=O)NC2=O)C3=S)CC1 (stereo not shown) [GT-08980, 3-(5-((4-(3-methyl-5-(5-methyl-5H-pyrido[4,3-b]indol-7-yl)pyridin-2-yl)piperazin-1-yl)methyl)-1-thioxoisoindolin-2-yl)piperidine-2,6-dione] |
| 60 to 80 | 80 to 100 | Cn1c2ccncc2c2ccc(-c3ccc(N4CCN(Cc5ccc6c(c5)CN(C5CCC(=O)NC5=O)C6=S)CC4)nc3)cc21 (stereo not shown) [GT-08982, 3-(5-((4-(5-(5-methyl-5H-pyrido[4,3-b]indol-7-yl)pyridin-2-yl)piperazin-1-yl)methyl)-1-thioxoisoindolin-2-yl)piperidine-2,6-dione] |
